In brackets after ≈: the same amount, converted by molar mass. Several values for one entry are separate records, joined by “and”; a condition that tells them apart may be missing. Equal values may be shown once.
Columns and labels:
Test in all cases: In vitro determination of minimum inhibitory concentration (MIC), serial dilution
Assay type in all cases: cell-based
[1] = test system: Trichophyton mentagrophytes; conditions: pH 6.0, 22° C., 14 days; for MIC: 336 h, pH 6, Trichophyton mentagrophytes
Protocol: (§1) The antimycotic activities of the compounds were measured by in vitro determination of the minimum inhibitory concentration (MIC) for yeasts, molds and dermatophytes.
(§2) 6 dermatophytes, 2 yeasts and 4 molds were used for testing with fungi, as follows:
(§3) The minimum inhibitory concentration (MIC) was determined in serial dilution tests in test tubes. The volume of the liquid nutrient medium in each test tube was 4.5 ml.
(§4) The substances were dissolved in DMSO and diluted with sterile distilled water to 10 concentrations (100, 50, 25, 12.5, 6.25, 3.12, 1.56, 0.78, 0.39 and 0.19 μg/ml). 0.5 ml of each of these dilution steps was added to liquid nutrient medium. Thus, a constant concentration of solvent in all the nutrient media was ensured, irrespective of the active compound concentration.
(§5) A comparison solution which contained only the solvent in appropriate concentration was included when carrying out each of the tests.
(§6) The individual strains were maintained on Sabouraud/beerwort agar slants and, before they were used in a test, they underwent a passage on a modified Sabouraud liquid nutrient medium. The strains were then harvested, washed and converted into a suspension of McFaerland 3 in the case of yeasts and molds and of McFaerland 4-5 in the case of dermatophytes.
(§7) The amount of material inoculated (inoculum) was 100 μl/test tube (inoculated densities: yeasts about 10^3 /ml, molds about 10^4 /ml, dermatophytes about 10^4 /ml). The pH of the liquid nutrient medium was 6.0. After inoculation had taken place the fungi were incubated at 22° C. for 14 days.
(§8) The MIC was then determined. The concentration step at which growth was no longer visible on macroscopic inspection was used for the determination of the MIC. The comparison substance used was 1-(2-(2,4-dichlorophenyl)-2-(2,4-dichlorophenylmethoxy)ethyl)-1H-imidazole(compound A).

Mucor mucedo plus = conditions: pH 6.0, 22° C., 14 days; for MIC: Mucor mucedo, 336 h, pH 6, Mucor mucedo plus
Protocol: as §1, §2, §3, §4, §5, §6, §7, §8

Trichophyton verrucosum = conditions: pH 6.0, 22° C., 14 days; for MIC: 336 h, pH 6, Trichophyton verrucosum
Protocol: as §1, §2, §3, §4, §5, §6, §7, §8

Candida tropicalis = conditions: 336 h, pH 6, Candida tropicalis, pH 6.0, 22° C., 14 days, read-out: MIC C.trop
Protocol: as §1, §2, §3, §4, §5, §6, §7, §8

Mucor mucedo minus = conditions: pH 6.0, 22° C., 14 days; for MIC: Mucor mucedo, 336 h, pH 6, Mucor mucedo minus
Protocol: as §1, §2, §3, §4, §5, §6, §7, §8

Microsporum gypseum = conditions: pH 6.0, 22° C., 14 days; for MIC: Nannizzia gypsea, 336 h, pH 6, Microsporum gypseum, read-out: MIC Mi.gyp
Protocol: as §1, §2, §3, §4, §5, §6, §7, §8

Trichophyton rubrum = conditions: pH 6.0, 22° C., 14 days; for MIC: 336 h, pH 6, Trichophyton rubrum
Protocol: as §1, §2, §3, §4, §5, §6, §7, §8

Epidermophyton floccosum = conditions: pH 6.0, 22° C., 14 days; for MIC: 336 h, pH 6, Epidermophyton floccosum
Protocol: as §1, §2, §3, §4, §5, §6, §7, §8

Absidia ramosa = conditions: pH 6.0, 22° C., 14 days; for MIC: Lichtheimia ramosa, 336 h, pH 6, Absidia ramosa; for MIC Abs.ra.: Absidia ramosa
Protocol: as §1, §2, §3, §4, §5, §6, §7, §8

Candida albicans = conditions: pH 6.0, 22° C., 14 days; for MIC: 336 h, pH 6, Candida albicans, read-out: MIC C.alb
Protocol: as §1, §2, §3, §4, §5, §6, §7, §8

Aspergillus fumigatus = conditions: 20160 min, pH 6
Protocol: as §1, §2, §3, §4, §5, §6, §7, §8

Microsporum canis = conditions: pH 6.0, 22° C., 14 days; for MIC: 336 h, pH 6, Microsporum canis
Protocol: as §1, §2, §3, §4, §5, §6, §7, §8

SMILES: Clc1ccc(C(Cn2cncn2)NCCCOc2c(Cl)cccc2Cl)c(Cl)c1 (stereo not drawn) [Compound 72]
- MIC [1]: 25 µg/mL (≈ 54.3 µM)
- MIC (Mucor mucedo plus): 6.25 µg/mL
- MIC (Trichophyton verrucosum): 1.56 µg/mL (≈ 3.39 µM)
- MIC (Candida tropicalis): 3.12 µg/mL (≈ 6.78 µM)
- MIC (Mucor mucedo minus): 6.25 µg/mL (≈ 13.6 µM)
- MIC (Microsporum gypseum): 6.25 µg/mL (≈ 13.6 µM)
- MIC (Trichophyton rubrum): 3.12 µg/mL (≈ 6.78 µM)
- MIC (Epidermophyton floccosum): 6.25 µg/mL (≈ 13.6 µM)
- MIC (Absidia ramosa): 100 µg/mL (≈ 217 µM)
- MIC (Candida albicans): 3.12 µg/mL (≈ 6.78 µM)
- MIC Asp.fu. (Aspergillus fumigatus): 3,12 μg/ml
- MIC (Microsporum canis): 25 µg/mL (≈ 54.3 µM)

SMILES: Clc1ccc(SCCNC(Cn2cncn2)c2ccc(Cl)cc2Cl)cc1 (stereo not drawn) [Compound 33]
- MIC [1]: 25 µg/mL (≈ 58.4 µM)
- MIC (Mucor mucedo plus): 6.25 µg/mL
- MIC (Trichophyton verrucosum): 3.12 µg/mL (≈ 7.29 µM)
- MIC (Candida tropicalis): 6.25 µg/mL (≈ 14.6 µM)
- MIC (Mucor mucedo minus): 3.12 µg/mL (≈ 7.29 µM)
- MIC (Microsporum gypseum): 6.25 µg/mL (≈ 14.6 µM)
- MIC (Trichophyton rubrum): 3.12 µg/mL (≈ 7.29 µM)
- MIC (Epidermophyton floccosum): 3.12 µg/mL (≈ 7.29 µM)
- MIC (Absidia ramosa): 25 µg/mL (≈ 58.4 µM)
- MIC (Candida albicans): 12.5 µg/mL (≈ 29.2 µM)
- MIC Asp.fu. (Aspergillus fumigatus): 25,0 μg/ml
- MIC (Microsporum canis): 6.25 µg/mL (≈ 14.6 µM)

SMILES: CN(CCCSCc1ccc(Cl)cc1)C(Cn1ccnc1)c1ccc(Cl)cc1Cl (stereo not drawn) [Compound 3, 1-(2-(2,4-Dichlorophenyl)-2-(N-methyl-3-(4-chlorobenzylthio)propylamino)ethyl)-1H-imidazole]
- MIC [1]: 6.25 µg/mL (≈ 13.3 µM)
- MIC (Mucor mucedo plus): 6.25 µg/mL
- MIC (Trichophyton verrucosum): 6.25 µg/mL (≈ 13.3 µM)
- MIC (Candida tropicalis): 0.78 µg/mL (≈ 1.66 µM)
- MIC (Mucor mucedo minus): 6.25 µg/mL (≈ 13.3 µM)
- MIC (Microsporum gypseum): 6.25 µg/mL (≈ 13.3 µM)
- MIC (Trichophyton rubrum): 6.25 µg/mL (≈ 13.3 µM)
- MIC (Epidermophyton floccosum): 1.56 µg/mL (≈ 3.33 µM)
- MIC (Absidia ramosa): 50 µg/mL (≈ 107 µM)
- MIC (Candida albicans): 3.12 µg/mL (≈ 6.65 µM)
- MIC Asp.fu. (Aspergillus fumigatus): 25,0 μg/ml
- MIC (Microsporum canis): 1.56 µg/mL (≈ 3.33 µM)

SMILES: Clc1ccc(C(Cn2ccnc2)NCCCSc2ccccc2)c(Cl)c1 (stereo not drawn) [Compound 90]
- MIC [1]: 25 µg/mL (≈ 61.5 µM)
- MIC (Mucor mucedo plus): 6.25 µg/mL
- MIC (Trichophyton verrucosum): 1.56 µg/mL (≈ 3.84 µM)
- MIC (Candida tropicalis): 3.12 µg/mL (≈ 7.68 µM)
- MIC (Mucor mucedo minus): 3.12 µg/mL (≈ 7.68 µM)
- MIC (Microsporum gypseum): 3.12 µg/mL (≈ 7.68 µM)
- MIC (Trichophyton rubrum): 1.56 µg/mL (≈ 3.84 µM)
- MIC (Epidermophyton floccosum): 3.12 µg/mL (≈ 7.68 µM)
- MIC (Absidia ramosa): 12.5 µg/mL (≈ 30.8 µM)
- MIC (Candida albicans): 6.25 µg/mL (≈ 15.4 µM)
- MIC Asp.fu. (Aspergillus fumigatus): 3,12 μg/ml
- MIC (Microsporum canis): 3.12 µg/mL (≈ 7.68 µM)

SMILES: Clc1ccc(C(Cn2ccnc2)NCCSc2ccc(Br)cc2)c(Cl)c1 (stereo not drawn) [Compound 37]
- MIC [1]: 1.56 µg/mL (≈ 3.31 µM)
- MIC (Mucor mucedo plus): 6.25 µg/mL
- MIC (Trichophyton verrucosum): 1.56 µg/mL (≈ 3.31 µM)
- MIC (Candida tropicalis): 6.25 µg/mL (≈ 13.3 µM)
- MIC (Mucor mucedo minus): 6.25 µg/mL (≈ 13.3 µM)
- MIC (Microsporum gypseum): 0.78 µg/mL (≈ 1.66 µM)
- MIC (Trichophyton rubrum): 1.56 µg/mL (≈ 3.31 µM)
- MIC (Epidermophyton floccosum): 1.56 µg/mL (≈ 3.31 µM)
- MIC (Absidia ramosa): 12.5 µg/mL (≈ 26.5 µM)
- MIC (Candida albicans): 6.25 µg/mL (≈ 13.3 µM)
- MIC Asp.fu. (Aspergillus fumigatus): 6,25 μg/ml
- MIC (Microsporum canis): 6.25 µg/mL (≈ 13.3 µM)

SMILES: Cc1ccc(OCCCNC(Cn2cncn2)c2ccc(Cl)cc2Cl)cc1 (stereo not drawn) [Compound 52]
- MIC [1]: 6.25 µg/mL (≈ 15.4 µM)
- MIC (Mucor mucedo plus): 3.12 µg/mL
- MIC (Trichophyton verrucosum): 3.12 µg/mL (≈ 7.7 µM)
- MIC (Candida tropicalis): 6.25 µg/mL (≈ 15.4 µM)
- MIC (Mucor mucedo minus): 12.5 µg/mL (≈ 30.8 µM)
- MIC (Microsporum gypseum): 3.12 µg/mL (≈ 7.7 µM)
- MIC (Trichophyton rubrum): 3.12 µg/mL (≈ 7.7 µM)
- MIC (Epidermophyton floccosum): 3.12 µg/mL (≈ 7.7 µM)
- MIC (Absidia ramosa): 100 µg/mL (≈ 247 µM)
- MIC (Candida albicans): 12.5 µg/mL (≈ 30.8 µM)
- MIC Asp.fu. (Aspergillus fumigatus): 6,25 μg/ml
- MIC (Microsporum canis): 3.12 µg/mL (≈ 7.7 µM)

SMILES: COc1ccc(OCCCNC(Cn2ccnc2)c2ccc(Cl)cc2Cl)cc1 (stereo not drawn) [Compound 67]
- MIC [1]: 100 µg/mL (≈ 238 µM)
- MIC Tri.me. [1]: 50,0 μg/ml
- MIC (Trichophyton verrucosum): 6.25 µg/mL (≈ 14.9 µM)
- MIC (Candida tropicalis): 50 µg/mL (≈ 119 µM)
- MIC (Microsporum gypseum): 25 µg/mL (≈ 59.5 µM)
- MIC (Epidermophyton floccosum): 100 µg/mL (≈ 238 µM)
- MIC Ep.flo (Epidermophyton floccosum): 50,0 μg/ml
- MIC Abs.ra. (Absidia ramosa): 50,0 μg/ml
- MIC (Absidia ramosa): 100 µg/mL (≈ 238 µM)
- MIC (Microsporum canis): 50 µg/mL (≈ 119 µM)
- MIC Mi.can (Microsporum canis): 25,0 μg/ml

SMILES: Clc1ccc(C(Cn2ccnc2)NCCCSc2ccc(Br)cc2)c(Cl)c1 (stereo not drawn) [Compound 1, 1-(2-(2,4-Dichlorophenyl)-2-(3-(4-bromophenylthio)propylamino)ethyl)-1H-imidazole]
- MIC Tri.me. [1]: 0,39 μg/ml
- MIC Mu.mu+ (Mucor mucedo plus; Mucor mucedo plus): 6,25 μg/ml
- MIC Tri.ve. (Trichophyton verrucosum): 0,30 μg/ml
- MIC Mu.mu- (Mucor mucedo minus; Mucor mucedo minus): 6,25 μg/ml
- MIC Mi.gyp (Microsporum gypseum; Microsporum gypseum): 0,39 μg/ml
- MIC Tri.ru. (Trichophyton rubrum): 0,39 μg/ml
- MIC Ep.flo (Epidermophyton floccosum): 0,78 μg/ml
- MIC Abs.ra. (Absidia ramosa): 3,12 μg/ml
- MIC C.alb (Candida albicans): 3,12 μg/ml
- MIC Asp.fu. (Aspergillus fumigatus): 1,56 μg/ml

SMILES: Clc1ccc(C(Cn2ccnc2)NCCSc2ccc3ccccc3c2)c(Cl)c1 (stereo not drawn) [Compound 40]
- MIC [1]: 6.25 µg/mL (≈ 14.1 µM)
- MIC (Mucor mucedo plus): 12.5 µg/mL
- MIC (Trichophyton verrucosum): 3.12 µg/mL (≈ 7.05 µM)
- MIC (Mucor mucedo minus): 25 µg/mL (≈ 56.5 µM)
- MIC (Microsporum gypseum): 3.12 µg/mL (≈ 7.05 µM)
- MIC (Trichophyton rubrum): 3.12 µg/mL (≈ 7.05 µM)
- MIC Ep.flo (Epidermophyton floccosum): 3,12 μg/ml and 6,25 μg/ml
- MIC (Absidia ramosa): 12.5 µg/mL (≈ 28.3 µM)
- MIC (Candida albicans): 6.25 µg/mL (≈ 14.1 µM)
